The nature of data set [1]: Pharmacokinetic assessments. The data set is classed as in vivo, patients. To be noted: for AUC(0-t) / Cmax / Tmax: human, serum.
Another data set relates to patients with RCC. To be noted: cited from earlier work.
Data set [2] concerns patients with advanced renal cell cancer. To be noted: ongoing randomised phase III trial; cited from earlier work.
The test system of data set [3] is patients with advanced RCC. Briefly: Treatment-emergent adverse events. To be noted: all 27 patients. The data set is classed as in vivo.
The subject of data set [4] is patients with advanced RCC. To be noted: phase III; cited from earlier work.
Data set [5] deals with patients with advanced RCC. In words: 3 + 3 dose-escalation: dose-limiting toxicities and recommended phase II dose. The data set is classed as in vivo.
The conditions of data set [6]: cited from earlier work.
Data set [7] deals with patients with advanced RCC. To be noted: cited from earlier work.

For the molecule `CO[C@H]1C[C@@H]2CC[C@@H](C)[C@@](O)(O2)C(=O)C(=O)N2CCCC[C@H]2C(=O)O[C@H]([C@H](C)C[C@@H]2CC[C@@H](O)[C@H](OC)C2)CC(=O)[C@H](C)/C=C(\C)[C@@H](O)[C@@H](OC)C(=O)[C@H](C)C[C@H](C)/C=C/C=C/C=C/1C` [Sirolimus, sirolimus], the “Ratio of sirolimus AUC0–last /temsirolimus AUC0–last, mean (SD)” value in data set [1] (day 22, Temsirolimus 15 mg/week) is 1.26 (0.67). Also, the “Ratio of sirolimus AUC0–last /temsirolimus AUC0–last, mean (SD)” value in data set [1] (day 22, Temsirolimus 25 mg/week) is 1.48 (0.66). For the same molecule, in data set [1] (intravenous, 15 mg/week), the AUC(0-t) (in general, exposure summed from dosing to a finite time, without extrapolation to infinity) amounted to 3560 ng·h/mL; the Cmax (in general, the maximum level reached in the sampled fluid or tissue) stood at 51.3 ng/mL; the Tmax (as a rule, the time from dosing to the highest level) turned out to be 3.18 h. Further, in data set [1] (intravenous, 25 mg/week), the AUC(0-t) was 6570 ng·h/mL, the Cmax was determined as 93.8 ng/mL and the time of peak concentration (Tmax) is 1.81 h.
Regarding `CNC(=O)c1ccccc1Sc1ccc2c(/C=C/c3ccccn3)n[nH]c2c1` [axitinib], in the data set with patients with RCC, the “Grade 3/4 hypertension, patients” value is 16% and the Incidence of hypertension was 40%.
Consider `Cc1ccc(Nc2nccc(N(C)c3ccc4c(C)n(C)nc4c3)n2)cc1S(N)(=O)=O` [pazopanib], for which, in the data set on patients with RCC, the “Grade 3 hypertension, patients” value is recorded as 4%; the “Grade 4 hypertension, patients” value is 0%; the Incidence of hypertension was 40%.
Regarding `CNC(=O)c1cc(Oc2ccc(NC(=O)Nc3ccc(Cl)c(C(F)(F)F)c3)cc2)ccn1` [sorafenib], in the data set on patients with RCC, the “Grade 3/4 hypertension, patients” value was 4–11% and the Incidence of hypertension is listed as 17–29%. In addition, the progression-free survival in data set [2] is listed as 9.1 months.
Turning to `CCN(CC)CCNC(=O)c1c(C)[nH]c(/C=C2\C(=O)Nc3ccc(F)cc32)c1C` [sunitinib], in the data set with patients with RCC, the “Grade 3 hypertension, patients” value was 8%; the “Grade 4 hypertension, patients” value is recorded as 0%; the Incidence of hypertension is 24%.
Regarding `CO[C@H]1C[C@@H]2CC[C@@H](C)[C@@](O)(O2)C(=O)C(=O)N2CCCC[C@H]2C(=O)O[C@H]([C@H](C)C[C@@H]2CC[C@@H](OC(=O)C(C)(CO)CO)[C@H](OC)C2)CC(=O)[C@H](C)/C=C(\C)[C@@H](O)[C@@H](OC)C(=O)[C@H](C)C[C@H](C)/C=C/C=C/C=C/1C` [temsirolimus], the “Patients with ≥1 dose reduction/interruption of the drug” value in data set [3] is given as 63%. Also, the “Fatigue, temsirolimus-related TEAE” value in data set [4] is listed as 51%. Further, the “Recommended phase II dose (RP2D), temsirolimus” value in data set [5] (intravenously, in combination with tivozanib) amounted to 25 mg/week. For the same molecule, in data set [1] (intravenous, 15 mg/week), the AUC(0-t) was determined as 3190 ng·h/mL, the Cmax is 164 ng/mL and the Tmax came to 2.32 h. In data set [1] (intravenous, 25 mg/week), the AUC(0-t) worked out at 4240 ng·h/mL, the Cmax was 200 ng/mL and the Tmax was 1.81 h.
`COc1cc2nccc(Oc3ccc(NC(=O)Nc4cc(C)on4)c(Cl)c3)c2cc1OC` [tivozanib]: the “Patients with ≥1 dose reduction/interruption of the drug” value in data set [3] was determined as 59%. The half-life in data set [6] is ~ 4.5 d. Moreover, the “Recommended phase II dose (RP2D), tivozanib” value in data set [5] (orally, 3 weeks on/1 week off, in combination with temsirolimus) was determined as 1.5 mg/day. In addition, the “Hypertension, treatment-related event, patients” value in data set [7] (phase II, advanced RCC) is given as 45%. Moreover, the “Fatigue, treatment-related event, patients” value in data set [7] (tivozanib monotherapy, phase II, advanced RCC) was 8%. Also, in data set [7] (tivozanib phase II trial), the “Grade 3 hypertension, patients” value is 11% and the “Grade 4 hypertension, patients” value was 1%. The Tmax in data set [1] (oral, […]) stood at 17.3 h. Moreover, the progression-free survival in data set [2] was 11.9 months.

The values above are taken from publication PMC4666006 (European journal of cancer (Oxford, England : 1990), 2013).
